Measurements published in patent US8772316B2, “Substituted 6,7-dialkoxy-3-isoquinolinol derivatives as inhibitors of phosphodiesterase 10 (PDE10A)” (Allergan, Inc., priority 2011, dated 2014).
pIC50: −log10 of the molar value. Counter-ions that a name gives are not always drawn.

The molecules below were run against PDE10A (assay: Phosphodiesterase assay (TR-FRET, LANCE cAMP kit)). Details: PDE10A (BPS Bioscience) 200 pg/well, biotin-cAMP substrate, 60 min at room temperature.
Type: biochemical
Description: The PDE assay is based on the homogenous time-resolved fluorescence resonance energy transfer (TR-FRET) technology (LANCE® from Perkin Elmer). […] When there is PDE activity, resulting in the degradation of the cyclic nucleotide, the complex is not formed and a decrease in signal is observed.
The phosphodiesterase assay was developed using the LANCE® cAMP kit (PerkinElmer). The assay buffer contained HBSS with 5 mM HEPES, 0.1% BSA, and 1.5 mM MgCl2, pH 7.4. PDE10A (BPS Bioscience) was used at 200 pg/well (with a specific activity of 3200 pmole/min/μg with assay conditions: 10 mM Tris-HCl, pH7.4, 10 mM MgCl2, 1 mM MnCl2, 200 μM cAMP, 2.5 kU 5′ nucleotidase, 37° C., 20 min). […] Chemical compounds were dissolved in DMSO (final concentration 2% (v/v)).
In a 384-well plate, 2 μL inhibitor and 3 μL PDE were added to the well, followed by the addition of 5 μl substrate biotinylated cAMP (1:5). After 60 min incubation at room temperature, 10 μL of assay detection mixture was added to the assay plate. After 1 h at room temperature, the signal was measured on EnVision™ (Perkin Elmer).

| Structure (SMILES) | pIC50 |
| --- | --- |
| CCc1nc(O)c(Cc2cc3cc4c(cc3nc2NC)OCO4)c2cc(OC)c(OC)cc12 [Compound 61, 1-ethyl-6,7-dimethoxy-4-((6-(methylamino)-[1,3]-dioxolo[4,5-g]quinolin-7-yl)methyl)isoquinolin-3-ol dihydrochloride] | 8.66 |
| CCc1nc(O)c(Cc2cccc(-c3ccccc3)c2)c2cc(OC)c(OC)cc12 [Compound 8, 4-([1,1′-Biphenyl]-3-ylmethyl)-1-ethyl-6,7-dimethoxyisoquinolin-3-ol hydrochloride] | 5.17 |
| CCCc1nc(O)c(Cc2cc3cc4c(cc3nc2NC)OCO4)c2cc(OC)c(OC)cc12 [Compound 62, 6,7-dimethoxy-4-((6-(methylamino)-[1,3]-dioxolo[4,5-g]quinolin-7-yl)methyl)-1-propylisoquinolin-3-ol dihydrochloride] | 8.96 |
| CCCc1nc(N)c(Cc2ccc3oc4ccccc4c3c2)c2cc(OC)c(OC)cc12 [Compound 65, 4-(dibenzo[b,d]furan-2-ylmethyl)-6,7-dimethoxy-1-propylisoquinolin-3-amine hydrochloride] | 6.01 |
| CCCc1nc(O)c(Cc2cnc3cc(OC)ccc3c2)c2cc(OC)c(OC)cc12 [Compound 32, 6,7-dimethoxy-4-((7-methoxyquinolin-3-yl)methyl)-1-propylisoquinolin-3-ol dihydrochloride] | 8.40 |
| CCc1nc(O)c(Cc2ccc3nc(C)ccc3c2)c2cc(OC)c(OC)cc12 [Compound 81, 1-Ethyl-6,7-dimethoxy-4-((2-methylquinolin-6-yl)methyl)isoquinolin-3-ol dihydrochloride] | 8.12 |
| COc1cc2c(C)nc(O)c(Cc3cccc(-c4ccccc4)n3)c2cc1OC [Compound 12, 6,7-dimethoxy-1-methyl-4-((6-phenylpyridin-2-yl)methyl)isoquinolin-3-ol dihydrochloride] | 7.03 |
| CCCc1nc(O)c(Cc2cc3cc(OC)ccc3nc2C(F)(F)F)c2cc(OC)c(OC)cc12 [Compound 72, 6,7-Dimethoxy-4-((6-methoxy-2-(trifluoromethyl)quinolin-3-yl)methyl)-1-propylisoquinolin-3-ol hydrochloride] | 6.35 |
| CCc1nc(O)c(Cc2cc3cc(OC)ccc3nc2NCc2ccccc2)c2cc(OC)c(OC)cc12 [Compound 44, 4-((2-(Benzylamino)-6-methoxyquinolin-3-yl)methyl)-1-ethyl-6,7-dimethoxyisoquinolin-3-ol dihydrochloride] | 8.10 |
| CCCc1nc(O)c(Cc2cc3cc4c(cc3nc2N(C)C)OCO4)c2cc(OC)c(OC)cc12 [Compound 63, 4-((6-(dimethylamino)-[1,3]dioxolo[4,5-g]quinolin-7-yl)methyl)-6,7-dimethoxy-1-propylisoquinolin-3-ol dihydrochloride] | 6.25 |
| CCCc1nc(O)c(Cc2ccc3ccccc3c2)c2cc(OC)c(OC)cc12 [Compound 20, 6,7-dimethoxy-4-(naphthalen-2-ylmethyl)-1-propylisoquinolin-3-ol hydrochloride] | 7.47 |
| CCCc1nc(O)c(Cc2ccc3oc4ccccc4c3c2)c2cc(OC)c(OC)cc12 [Compound 7, 4-(Dibenzo[b,d]furan-2-ylmethyl)-6,7-dimethoxy-1-propylisoquinolin-3-ol hydrochloride] | 9.30 |
| CNc1nc2ccc(C)cc2cc1Cc1c(O)nc(C)c2cc(OC)c(OC)cc12 [Compound 33, 6,7-Dimethoxy-1-methyl-4-((6-methyl-2-(methylamino)quinolin-3-yl)methyl)isoquinolin-3-ol dihydrochloride] | 7.89 |
| COc1cc2c(C)nc(O)c(Cc3ccc4ncccc4c3)c2cc1OC [Compound 24, 6,7-dimethoxy-1-methyl-4-(quinolin-6-ylmethyl)isoquinolin-3-ol dihydrochloride] | 7.07 |

Continued by rising pIC50, values first:

| pIC50 | Structure (SMILES) |
| --- | --- |
| 6.89 | COc1cc2c(C)nc(O)c(Cc3ccc4ccccc4n3)c2cc1OC [Compound 23, 6,7-dimethoxy-1-methyl-4-(quinolin-2-ylmethyl)isoquinolin-3-ol dihydrochloride] |
| 7.00 | COc1cc2c(C)nc(O)c(Cc3cccc(-c4ccncc4)n3)c2cc1OC [Compound 14, 4-([2,4′-bipyridin]-6-ylmethyl)-6,7-dimethoxy-1-methylisoquinolin-3-ol trihydrochloride] |
| 7.16 | COc1ccc(-c2cncc(Cc3c(O)nc(C)c4cc(OC)c(OC)cc34)c2)cc1 [Compound 16, 6,7-dimethoxy-4-((5-(4-methoxyphenyl)pyridin-3-yl)methyl)-1-methylisoquinolin-3-ol dihydrochloride] |
| 7.33 | CCNc1nc2ccc(OC)cc2cc1Cc1c(O)nc(CNC(C)=O)c2cc(OC)c(OC)cc12 [Compound 57, N-((4-((2-(ethylamino)-6-methoxyquinolin-3-yl)methyl)-3-hydroxy-6,7-dimethoxyisoquinolin-1-yl)methyl)acetamide dihydrochloride] |
| 7.54 | CCNc1nc2ccc(OCC)cc2cc1Cc1c(O)nc(C(C)C)c2cc(OC)c(OC)cc12 [Compound 46, 4-((6-Ethoxy-2-(ethylamino)quinolin-3-yl)methyl)-1-isopropyl-6,7-dimethoxyisoquinolin-3-ol dihydrochloride] |
| 7.57 | CNc1nc2cc(O)c(O)cc2cc1Cc1c(O)nc(C)c2cc(OC)c(OC)cc12 [Compound 59, 3-((3-hydroxy-6,7-dimethoxy-1-methylisoquinolin-4-yl)methyl)-2-(methylamino)quinoline-6,7-diol dihydrochloride] |
| 7.57 | CCc1nc(O)c(Cc2cnc3ccccc3c2)c2cc(OC)c(OC)cc12 [Compound 78, 1-ethyl-6,7-dimethoxy-4-(quinolin-3-ylmethyl)isoquinolin-3-ol dihydrochloride] |
| 7.80 | CCCc1nc(O)c(Cc2cc3cc(OC)ccc3nc2CC)c2cc(OC)c(OC)cc12 [Compound 66, 4-((2-ethyl-6-methoxyquinolin-3-yl)methyl)-6,7-dimethoxy-1-propylisoquinolin-3-ol dihydrochloride] |
| 8.21 | CCCc1nc(O)c(Cc2cnc3ccccc3c2)c2cc(OC)c(OC)cc12 [Compound 74, 6,7-dimethoxy-1-propyl-4-(quinolin-3-ylmethyl)isoquinolin-3-ol hydrochloride] |
| 8.22 | CNc1nc2ccc(OC)cc2cc1Cc1c(O)nc(C)c2cc(OC)c(OC)cc12 [Compound 37, 6,7-Dimethoxy-4-((6-methoxy-2-(methylamino)quinolin-3-yl)methyl)-1-methyl-isoquinolin-3-ol dihydrochloride] |
| 8.22 | CCOc1cccc2ncc(Cc3c(O)nc(C)c4cc(OC)c(OC)cc34)cc12 [Compound 28, 4-((5-Ethoxyquinolin-3-yl)methyl)-6,7-dimethoxy-1-methylisoquinolin-3-ol dihydrochloride] |
| 8.36 | CCCc1nc(O)c(Cc2cc3cc(OC)ccc3nc2NCCNC(C)=O)c2cc(OC)c(OC)cc12 [Compound 55, N-(2-((3-((3-hydroxy-6,7-dimethoxy-1-propylisoquinolin-4-yl)methyl)-6-methoxyquinolin-2-yl)amino)ethyl)acetamide dihydrochloride] |
| 8.41 | CCc1nc(O)c(Cc2cc3cc(OCC4CC4)ccc3nc2NCCNC(C)=O)c2cc(OC)c(OC)cc12 [Compound 87, N-(2-((6-(cyclopropylmethoxy)-3-((1-ethyl-3-hydroxy-6,7-dimethoxyisoquinolin-4-yl)methyl)quinolin-2-yl)amino)ethyl)acetamide dihydrochloride] |
| 8.57 | CNc1nc2cc3c(cc2cc1Cc1c(O)nc(C)c2cc(OC)c(OC)cc12)OCO3 [Compound 60, 6,7-dimethoxy-1-methyl-4-((6-(methylamino)-[1,3]dioxolo[4,5-g]quinolin-7-yl)methyl)isoquinolin-3-ol dihydrochloride] |
| 8.64 | CCCc1nc(O)c(Cc2cc3cc(OC)ccc3nc2NCCOC)c2cc(OC)c(OC)cc12 [Compound 76, 6,7-dimethoxy-4-((6-methoxy-2-(2-methoxyethylamino)quinolin-3-yl)methyl)-1-propylisoquinolin-3-ol dihydrochloride] |
| 8.72 | CCCc1nc(O)c(Cc2cc3cc(C)ccc3nc2NC)c2cc(OC)c(OC)cc12 [Compound 34, 6,7-dimethoxy-4-((6-methyl-2-(methylamino)quinolin-3-yl)methyl)-1-propylisoquinolin-3-ol dihydrochloride] |
| 8.80 | CCCc1nc(O)c(Cc2cnc3ccc(OC)cc3c2)c2cc(OC)c(OC)cc12 [Compound 84, 6,7-Dimethoxy-4-((6-methoxyquinolin-3-yl)methyl)-1-propylisoquinolin-3-ol dihydrochloride] |
| 8.82 | CCc1nc(O)c(Cc2cc3cc(OC)ccc3nc2NCCNC(C)=O)c2cc(OC)c(OC)cc12 [Compound 69, N-(2-(3-((1-Ethyl-3-hydroxy-6,7-dimethoxyisoquinolin-4-yl)methyl)-6-methoxyquinolin-2-ylamino)ethyl)acetamide dihydrochloride] |
| 9.30 | CCCNc1nc2ccc(OC)cc2cc1Cc1c(O)nc(CC)c2cc(OC)c(OC)cc12 [Compound 42, 1-ethyl-6,7-dimethoxy-4-((6-methoxy-2-(propylamino)quinolin-3-yl)methyl)isoquinolin-3-ol dihydrochloride] |
| 9.40 | CCNc1nc2ccc(OC)cc2cc1Cc1c(O)nc(CC)c2cc(OC)c(OC)cc12 [Compound 40, 1-Ethyl-6,7-dimethoxy-4-((6-methoxy-2-(ethylamino)quinolin-3-yl)methyl)isoquinolin-3-ol dihydrochloride] |
